Experimental findings from patent US5650442A (priority 1994, dated 1997) are described below.

One series concerns Female C3H mice. The experiment in a line: Protection of mice against melphalan toxicity. In kind it is in vivo. The conditions noted are these: 70 mg/kg DEA/NO, i.p. As to the method:
Female C3H mice were injected intraperitoneally with varying doses of melphalan alone or melphalan with 70 mg/kg DEA/NO. The methods employed were adaptations of the methods used in Examples 9 and 11.
FIG. 16 is a graph of % survival of animals versus does of melphalan (mg/kg) showing the chemotherapy survival curves for mice exposed to melphalan in the absence or presence of DEA/NO. […] DEA/NO provided approximately a 1.2 protection factor at the 50% survival level.

In series [1] the test system is Chinese hamster V79 lung fibroblasts. The experiment in a line: Cytotoxicity of the agents alone to V79 cells, clonogenic assay. The conditions noted are these: no radiation. As to the method: (§1) Chinese hamster V79 lung fibroblasts were cultured in F12 medium supplemented with 10% fetal calf serum and antibiotics. […] The assay system was specifically designed to evaluate radiation sensitivity of cells exposed to radiation under both aerobic and hypoxic conditions (Mitchell et al., Radiat. Res., 96, 422-428 (1983); Russo et al., Radiat. Res., 103, 232-239 (1985); and DeGraff et al., Int. J. Radiat. Oncol. Biol. Phys., 16, 1021-1024 (1989)).
(§2) When cultured cells were exposed to DEA/NO in subsequent examples, DEA/NO in F12 medium with 10 mM HEPES buffer, pH 7.0, was used. […] Control cells in subsequent examples were exposed to 0.02N NaOH, instead of DEA/NO.
Radiation survival curves for V79 cells exposed to varying concentrations of DEA/NO and various DEA/NO decomposition products under hypoxic conditions (metabolic hypoxia induction) are shown in FIG. 1A, which is a graph of the surviving fraction versus dose (Gy). Lines in FIG. 1A represent control (.circle-solid.) and 0.1 mM (Δ), 0.5 mM (.largecircle.), 1.0 mM (.quadrature.), and 2.0 mM (.box-solid.) DEA/NO. Survival curves were corrected for drug cytotoxicity as appropriate.
DEA/NO (2.0 mM) was allowed to decompose to liberate NO in medium maintained at 37° C. overnight in a flask open to the air for use as an additional control. The medium containing the DEA/NO decomposition products was then used to evaluate possible effects on radiosensitization.

The test system of the next series is C3H mice. The experiment in a line: Protection of mice from whole body irradiation. The series is classed as in vivo.
Series [2] concerns Chinese hamster V79 lung fibroblasts. Kind of series: Radiation survival of aerobic V79 cells, clonogenic assay. The series is classed as cell-based. As to the method:
as §1, §2
Following irradiation, the various cell suspensions were pipetted, counted, diluted, and plated for macroscopic colony formation. Each dose determination was plated in triplicate and experiments were repeated a minimum of two times. Plates were incubated for seven days, after which colonies were fixed with methanol/acetic acid (3:1), stained with crystal violet, and counted. Colonies containing >50 cells were scored and graphed as FIGS. 1-3. Error bars in the graphs represent the standard deviation of the mean and are shown when larger than the symbol used to designate a data point. Survival curve data were fitted using a linear quadratic model of Albright (Radiat. Res., 112, 331-340 (1987)), and the survival curves shown in the figures represent the best fit curves for the experimental data points. Sensitizer enhancement ratios (SER) were calculated by dividing the radiation dose for control hypoxic conditions by the radiation dose for various agents under hypoxic conditions at the 1% surviving fraction level.

Series [3] concerns human MCF7 breast cancer cells. Kind of series: Chemosensitization of human breast cancer cells to melphalan or thiotepa, clonogenic assay. The following applies: 1 hr, 37° C.; for DEA/NO enhancement ratio at the 10% surviving fraction level: 1 mM DEA/NO. The procedure:
FIG. 10 is a graph of surviving fraction versus concentration (μg/ml) of melphalan in the absence or presence of 1 mMDEA/NO or released DEA/NO showing the survival curves for human MCF7 breast cancer cells exposed to melphalan in the absence or presence of 1 mM DEA/NO or released DEA/NO.
FIG. 11 is a graph of surviving fraction versus concentration (μg/ml) of thiotepa in the absence or presence of 1 mM DEA/NO or released DEA/NO showing the survival curves for human MCF7 breast cancer cells exposed to thiotepa in the absence or presence of 1 mM DEA/NO or released DEA/NO.
as §1
Human breast cancer cells in log phase were exposed for 1 hr at 37° C. to varying concentrations of melphalan or thiotepa in the absence or presence of 1 mM DEA/NO or released DEA/NO. […] Cytotoxicity was evaluated using the clonogenic assay of Example 2.
FIGS. 10 and 11 are graphs of surviving fraction versus concentration (μg/ml) of melphalan and thiotepa, respectively.

`CCN(CC)/[N+]([O-])=N/[O-].[Na+]` [DEA/NO]: the “protection against the effects of melphalan” value in the series on Female C3H mice was “protected the mice against the effects of melphalan”. For the same compound, the “protection factor at the 50% survival level” value with Female C3H mice (varying melphalan doses) is recorded as around 1.2. The “cytotoxicity of treatment alone” value in series [1] (2 mM) is “minimal cytotoxicity”; in series [1] (0.1-1.0 mM) it was “not cytotoxic”. The “Percent survival of mice at 30 days” value in the series on C3H mice (700 cGy, 80 mg/kg i.p. 10 min before) worked out at 100%; in the series with C3H mice (700 cGy, 80 mg/kg i.p. 30 min before), 100%; in the series on C3H mice (800 cGy, 80 mg/kg i.p. 10 min before), 100%; in the series on C3H mice (800 cGy, 80 mg/kg i.p. 30 min before), 90%; in the series on C3H mice (900 cGy, 80 mg/kg i.p. 10 min before), 77%; in the series with C3H mice (900 cGy, 80 mg/kg i.p. 30 min before), 80%. Also, the “Percent survival of mice at 30 days” value in the series with C3H mice (1000 cGy, 80 mg/kg i.p. 10 min before) is 44%; with C3H mice (1000 cGy, 80 mg/kg i.p. 30 min before), 10%. The “enhancement of aerobic radiosensitivity at the 1% survival level” value in series [2] (2.0 mM) came to 1.3. Besides, the “effect on aerobic radiosensitivity” value in series [2] (0.5 and 1.0 mM) was “had no effect on aerobic radiosensitivity”. Besides, the “enhancement of chemosensitivity / cytotoxicity” value in series [3] (melphalan and thiotepa, 1 mM) is “significantly enhanced the chemosensitivity of human breast cancer cells to melphalan and thiotepa”. In addition, the “DEA/NO enhancement ratio at the 10% surviving fraction level” value in series [3] (melphalan) came out at 3.3; in series [3] (thiotepa) it was 1.3.
